# Several values for one entry are separate records, joined by “and”; a condition that tells them apart may be missing. Equal values may be shown once. Toxic doses and inconclusive results are not listed.
# Tested on: P388 leukemia ip, CD2F1 mice, survival T/C
# Experiment: NCI In Vivo Anticancer Drug Screen. Data for tumor model P388 Leukemia (intraperitoneal) in CD2F1 (CDF1) mice
# Details: endpoint: median survival time, higher = longer survival
# Summary of the method: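 Mice carrying the transplanted tumor received test compound or vehicle. Survival was recorded in each group, and the value is the treated-group measurement divided by that of the vehicle-treated control group.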
smiles,measurement,setting,value
S=c1nc[nH]c2nc[nH]c12,T/C,"dose: 9.38 mg/kg/injection, schedule: Q01DX009 (ip), vehicle: alkali diluted with saline",111 % of control
same,T/C,"dose: 18.8 mg/kg/injection, schedule: Q01DX009 (ip), vehicle: alkali diluted with saline",105 % of control
same,T/C,"dose: 20.0 mg/kg/injection, schedule: Q01DX005 (ip), vehicle: alkali diluted with saline",110 % of control
same,T/C,"dose: 20.0 mg/kg/injection, schedule: Q01DX005 (ip), vehicle: other",108 % of control and 92 % of control
same,T/C,"dose: 20.0 mg/kg/injection, schedule: Q01DX009 (ip), vehicle: alkali diluted with saline",95 % of control
same,T/C,"dose: 20.0 mg/kg/injection, schedule: Q01DX009 (ip), vehicle: alkali diluted with water",118 % of control
same,T/C,"dose: 20.0 mg/kg/injection, schedule: Q04DX003 (ip), vehicle: other",110 % of control
same,T/C,"dose: 20.0 mg/kg/injection, schedule: Q04DX003 (iv), vehicle: other",116 % of control
same,T/C,"dose: 25.0 mg/kg/injection, schedule: Q01DX005 (ip), vehicle: alkali diluted with saline",105 % of control
same,T/C,"dose: 25.0 mg/kg/injection, schedule: Q01DX005 (ip), vehicle: alkali diluted with water",100 % of control
same,T/C,"dose: 25.0 mg/kg/injection, schedule: Q01DX009 (ip), vehicle: Klucel (hydroxypropylcellulose) (HPC)",115 % of control
same,T/C,"dose: 28.13 mg/kg/injection, schedule: Q04DX003 (ip), vehicle: alkali diluted with saline",105 % of control
same,T/C,"dose: 37.5 mg/kg/injection, schedule: Q01DX009 (ip), vehicle: alkali diluted with saline",110 % of control
same,T/C,"dose: 37.5 mg/kg/injection, schedule: Q04DX003 (ip), vehicle: Klucel (hydroxypropylcellulose) (HPC)",121 % of control
same,T/C,"dose: 40.0 mg/kg/injection, schedule: Q01DX001 (ip), vehicle: other",111 % of control
same,T/C,"dose: 40.0 mg/kg/injection, schedule: Q01DX001 (iv), vehicle: other",100 % of control
same,T/C,"dose: 40.0 mg/kg/injection, schedule: Q01DX005 (ip), vehicle: alkali diluted with saline",119 % of control
same,T/C,"dose: 40.0 mg/kg/injection, schedule: Q01DX005 (ip), vehicle: other",107 % of control and 119 % of control
same,T/C,"dose: 40.0 mg/kg/injection, schedule: Q01DX009 (ip), vehicle: alkali diluted with saline",101 % of control and 105 % of control and 97 % of control
same,T/C,"dose: 40.0 mg/kg/injection, schedule: Q01DX009 (ip), vehicle: alkali diluted with water",86 % of control
same,T/C,"dose: 40.0 mg/kg/injection, schedule: Q04DX003 (ip), vehicle: other",117 % of control
same,T/C,"dose: 40.0 mg/kg/injection, schedule: Q04DX003 (iv), vehicle: other",99 % of control
same,T/C,"dose: 50.0 mg/kg/injection, schedule: Q01DX005 (ip), vehicle: alkali diluted with saline",113 % of control
same,T/C,"dose: 50.0 mg/kg/injection, schedule: Q01DX005 (ip), vehicle: alkali diluted with water",111 % of control
same,T/C,"dose: 50.0 mg/kg/injection, schedule: Q01DX005 (ip), vehicle: saline",105 % of control
same,T/C,"dose: 50.0 mg/kg/injection, schedule: Q01DX009 (ip), vehicle: Klucel (hydroxypropylcellulose) (HPC)",123 % of control
same,T/C,"dose: 50.0 mg/kg/injection, schedule: Q01DX009 (ip), vehicle: alkali diluted with saline",99 % of control and 104 % of control
same,T/C,"dose: 56.25 mg/kg/injection, schedule: Q04DX003 (ip), vehicle: alkali diluted with saline",99 % of control
same,T/C,"dose: 60.0 mg/kg/injection, schedule: Q01DX009 (ip), vehicle: alkali diluted with saline",102 % of control and 113 % of control
same,T/C,"dose: 75.0 mg/kg/injection, schedule: Q01DX009 (ip), vehicle: alkali diluted with saline",117 % of control
same,T/C,"dose: 75.0 mg/kg/injection, schedule: Q04DX003 (ip), vehicle: Klucel (hydroxypropylcellulose) (HPC)",117 % of control
same,T/C,"dose: 80.0 mg/kg/injection, schedule: Q01DX001 (iv), vehicle: other",103 % of control
same,T/C,"dose: 80.0 mg/kg/injection, schedule: Q01DX005 (ip), vehicle: alkali diluted with saline",120 % of control
same,T/C,"dose: 80.0 mg/kg/injection, schedule: Q01DX005 (ip), vehicle: other",95 % of control
same,T/C,"dose: 80.0 mg/kg/injection, schedule: Q01DX009 (ip), vehicle: alkali diluted with saline",95 % of control
same,T/C,"dose: 80.0 mg/kg/injection, schedule: Q04DX003 (iv), vehicle: other",104 % of control
same,T/C,"dose: 100.0 mg/kg/injection, schedule: Q01DX005 (ip), vehicle: alkali diluted with saline",105 % of control
same,T/C,"dose: 100.0 mg/kg/injection, schedule: Q01DX005 (ip), vehicle: alkali diluted with water",105 % of control
same,T/C,"dose: 100.0 mg/kg/injection, schedule: Q01DX005 (ip), vehicle: saline",102 % of control and 108 % of control
same,T/C,"dose: 112.5 mg/kg/injection, schedule: Q04DX003 (ip), vehicle: alkali diluted with saline",107 % of control
same,T/C,"dose: 150.0 mg/kg/injection, schedule: Q01DX001 (ip), vehicle: alkali diluted with saline",101 % of control and 107 % of control
same,T/C,"dose: 160.0 mg/kg/injection, schedule: Q01DX001 (iv), vehicle: other",103 % of control
same,T/C,"dose: 160.0 mg/kg/injection, schedule: Q01DX005 (ip), vehicle: other",108 % of control and 112 % of control
same,T/C,"dose: 160.0 mg/kg/injection, schedule: Q01DX009 (ip), vehicle: alkali diluted with saline",106 % of control
same,T/C,"dose: 200.0 mg/kg/injection, schedule: Q01DX001 (ip), vehicle: alkali diluted with saline",108 % of control and 111 % of control
same,T/C,"dose: 200.0 mg/kg/injection, schedule: Q01DX005 (ip), vehicle: alkali diluted with water",86 % of control
same,T/C,"dose: 200.0 mg/kg/injection, schedule: Q01DX005 (ip), vehicle: saline",100 % of control and 115 % of control and 124 % of control
same,T/C,"dose: 225.0 mg/kg/injection, schedule: Q04DX003 (ip), vehicle: alkali diluted with saline",98 % of control
same,T/C,"dose: 250.0 mg/kg/injection, schedule: Q01DX001 (ip), vehicle: alkali diluted with saline",107 % of control
same,T/C,"dose: 250.0 mg/kg/injection, schedule: Q01DX001 (ip), vehicle: saline",102 % of control
same,T/C,"dose: 300.0 mg/kg/injection, schedule: Q01DX001 (ip), vehicle: alkali diluted with saline",112 % of control
same,T/C,"dose: 320.0 mg/kg/injection, schedule: Q01DX001 (ip), vehicle: other",100 % of control
same,T/C,"dose: 320.0 mg/kg/injection, schedule: Q01DX001 (iv), vehicle: other",108 % of control
same,T/C,"dose: 320.0 mg/kg/injection, schedule: Q04DX003 (iv), vehicle: other",100 % of control
same,T/C,"dose: 400.0 mg/kg/injection, schedule: Q01DX005 (ip), vehicle: saline",89 % of control
same,T/C,"dose: 400.0 mg/kg/injection, schedule: Q01DX009 (ip), vehicle: Klucel (hydroxypropylcellulose) (HPC)",115 % of control
same,T/C,"dose: 500.0 mg/kg/injection, schedule: Q01DX001 (ip), vehicle: saline",104 % of control
same,T/C,"dose: 640.0 mg/kg/injection, schedule: Q01DX001 (iv), vehicle: other",105 % of control
same,T/C,"dose: 1000.0 mg/kg/injection, schedule: Q01DX001 (ip), vehicle: saline",99 % of control
COC(c1cccc(C(OC)(C(F)(F)F)C(F)(F)F)c1)(C(F)(F)F)C(F)(F)F,T/C,"dose: 25.0 mg/kg/injection, schedule: Q01DX005 (ip), vehicle: Klucel (hydroxypropylcellulose) (HPC)",101 % of control
same,T/C,"dose: 50.0 mg/kg/injection, schedule: Q01DX005 (ip), vehicle: Klucel (hydroxypropylcellulose) (HPC)",96 % of control
same,T/C,"dose: 100.0 mg/kg/injection, schedule: Q01DX005 (ip), vehicle: Klucel (hydroxypropylcellulose) (HPC)",103 % of control
same,T/C,"dose: 200.0 mg/kg/injection, schedule: Q01DX005 (ip), vehicle: Klucel (hydroxypropylcellulose) (HPC)",90 % of control
CC1(CNC(=O)C(=O)NCC2(C)CO2)CO1 (centres undefined),T/C,"dose: 6.25 mg/kg/injection, schedule: Q04DX003 (ip), vehicle: saline with Tween-80",90 % of control
same,T/C,"dose: 17.5 mg/kg/injection, schedule: Q04DX003 (ip), vehicle: saline with Tween-80",109 % of control
same,T/C,"dose: 25.0 mg/kg/injection, schedule: Q01DX009 (ip), vehicle: saline with Tween-80",150 % of control
same,T/C,"dose: 25.0 mg/kg/injection, schedule: Q04DX003 (ip), vehicle: saline with Tween-80",122 % of control
same,T/C,"dose: 50.0 mg/kg/injection, schedule: Q01DX009 (ip), vehicle: saline with Tween-80",172 % of control
same,T/C,"dose: 100.0 mg/kg/injection, schedule: Q01DX009 (ip), vehicle: saline with Tween-80",186 % of control
same,T/C,"dose: 100.0 mg/kg/injection, schedule: Q04DX003 (ip), vehicle: saline with Tween-80",168 % of control
same,T/C,"dose: 132.0 mg/kg/injection, schedule: Q04DX003 (ip), vehicle: saline with Tween-80",172 % of control
same,T/C,"dose: 200.0 mg/kg/injection, schedule: Q04DX003 (ip), vehicle: saline with Tween-80",163 % of control and 195 % of control
same,T/C,"dose: 300.0 mg/kg/injection, schedule: Q04DX003 (ip), vehicle: saline with Tween-80",195 % of control
same,T/C,"dose: 400.0 mg/kg/injection, schedule: Q04DX003 (ip), vehicle: saline with Tween-80",109 % of control
O=P(CSCCO)(c1ccccc1)c1ccccc1,T/C,"dose: 60.0 mg/kg/injection, schedule: Q01DX005 (ip), vehicle: saline with Tween-80",89 % of control
same,T/C,"dose: 120.0 mg/kg/injection, schedule: Q01DX005 (ip), vehicle: saline with Tween-80",93 % of control
same,T/C,"dose: 240.0 mg/kg/injection, schedule: Q01DX005 (ip), vehicle: saline with Tween-80",97 % of control
CC(C)=CCc1cc(O)c(C)cc1O,T/C,"dose: 12.5 mg/kg/injection, schedule: Q01DX009 (ip), vehicle: distilled water + Tween-80 + alcohol",99 % of control
same,T/C,"dose: 25.0 mg/kg/injection, schedule: Q01DX009 (ip), vehicle: distilled water + Tween-80 + alcohol",91 % of control

# Reference: PubChem BioAssay AID330 (DTP/NCI, 2004)
